Paper PMC10387993, “New pyrimidine-N-β-D-glucosides: synthesis, biological evaluation, and molecular docking investigations” (Turkish Journal of Chemistry, 2023)
Converted amounts (≈) assume the structure as drawn. Like-named read-outs stand apart in the source and are kept apart here.

Tests used:
Assay type in all cases: cell-based
C6 (Rat brain glioma) = test: cells; conditions: Rattus norvegicus; for LC50 (concentration giving 50% net cell loss relative to time zero): read-out: LC50; for GI50 / IC50 / IC (total growth inhibition): C6, MTT; for IC50: read-out: IC50; for IC (total growth inhibition): read-out: TGI
Summary of the method: (§1)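 In this MTT proliferation screen, formazan formed over 4 h was read at 560 nm against a 690 nm reference. Each line was tested at least three times, and the IC50 was taken as the concentration inhibiting half of the cells.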

Hep3B = test: cells; conditions: Homo sapiens; for GI50 / IC50 / IC (total growth inhibition): MTT; for IC50: read-out: IC50; for IC (total growth inhibition): read-out: TGI; for LC50 (concentration causing 50% net cell loss relative to time zero): read-out: LC50
Summary of the method: as §1

in vitro = conditions: human, LC50
Summary of the method: as §1

normal FL cells = test: cells; conditions: FL normal cells, MTT; for IC50: read-out: IC50; for IC (total growth inhibition): read-out: TGI
Summary of the method: as §1

[1] = LDH cytotoxic activity assay, HeLa; conditions: human, HeLa cells
Summary of the method: (§2)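 Harvest ~80%-confluent cells with trypsin-EDTA, seed ~5 × 10^3 per well in DMEM or RPMI 1640 containing 10% FBS, then add compound at 25–100 μg/mL (four levels) for 24 h at 37 °C. Finish by reading LDH activity at 492–630 nm.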

[2] = LDH cytotoxic activity assay, HT29; conditions: human, HT29 cells; for cytotoxicity at 24 h, 25 μg/mL: HT29, 25 μg/mL; for cytotoxicity at 24 h, 50 μg/mL: HT29, 50 μg/mL; for cytotoxicity at 24 h, 75 μg/mL: HT29, 75 μg/mL; for cytotoxicity at 24 h, 100 μg/mL: HT29, 100 μg/mL
Summary of the method: as §2

[3] = tested on: A. actinomycetemcomitans ATCC 33384; test: Microdilution MIC assay; conditions: Aggregatibacter actinomycetemcomitans, ATCC33384; A. actinomycetemcomitans ATCC 33384, 24 h at 35 °C
Description: (§3) MIC values of the compounds against bacterial strains were determined on the basis of a microwell dilution method. […] […]. Growth of microorganisms was determined visually after incubation for 24 h at 35 °C. The lowest concentration at which there was no visible growth (turbidity) was taken as the MIC.

E. coli ATCC 25922 = test: Microdilution MIC assay; conditions: Escherichia coli, ATCC25922; E. coli ATCC 25922, 24 h at 35 °C
Description: as §3

E. coli ESBL ATCC 35218 = test: Microdilution MIC assay; conditions: Escherichia coli, ATCC35218; E. coli ESBL ATCC 35218, 24 h at 35 °C
Description: as §3

E. faecalis ATCC 29212 = test: Microdilution MIC assay; conditions: Enterococcus faecalis, ATCC29212, 24 h, E. faecalis ATCC 29212, 24 h at 35 °C; read-out: MIC
Description: as §3

[4] = tested on: E. faecalis VRE ATCC 19433; test: Microdilution MIC assay; conditions: Enterococcus faecalis; E. faecalis VRE ATCC 19433, 24 h at 35 °C
Description: as §3

[5] = tested on: P. aeruginosa AGME ATCC 27853; test: Microdilution MIC assay; conditions: Pseudomonas aeruginosa, ATCC27853; P. aeruginosa AGME ATCC 27853, 24 h at 35 °C
Description: as §3

S. aureus ATCC 25923 = test: Microdilution MIC assay; conditions: Staphylococcus aureus, ATCC25923, 24 h, S. aureus ATCC 25923, 24 h at 35 °C; read-out: MIC
Description: as §3

[6] = tested on: S. aureus MRSA ATCC 46300; test: Microdilution MIC assay; conditions: Staphylococcus aureus; S. aureus MRSA ATCC 46300, 24 h at 35 °C; read-out: MIC
Description: as §3

[7] = tested on: S. aureus MSSA ATCC 29213; test: Microdilution MIC assay; conditions: Staphylococcus aureus, 24 h, S. aureus MSSA ATCC 29213, 24 h at 35 °C; read-out: MIC
Description: as §3

S. gordonii NCTC 7870 = test: Microdilution MIC assay; conditions: Streptococcus gordonii, NCTC7870; S. gordonii NCTC 7870, 24 h at 35 °C
Description: as §3

S. mutans ATCC 35668 = test: Microdilution MIC assay; conditions: S. mutans ATCC 35668, 24 h at 35 °C
Description: as §3

[8] = Streptococcus mutans, ATCC35668, 24 h, read-out: MIC

GI50 (C6 (Rat brain glioma))	IC50 (C6 (Rat brain glioma))	GI50 (Hep3B)	IC50 (Hep3B)	Structure (SMILES)	LC50 (concentration giving 50% net cell loss relative to time zero) (C6 (Rat brain glioma))	IC (total growth inhibition) (C6 (Rat brain glioma))	IC (total growth inhibition) (Hep3B)	LC50 (concentration causing 50% net cell loss relative to time zero) (Hep3B)	LC50 (concentration causing 50% net cell loss) (in vitro)	GI50 (normal FL cells)	IC50 (normal FL cells)	IC (total growth inhibition) (normal FL cells)	cytotoxicity at 24 h, 25 μg/mL [1]	cytotoxicity at 24 h, 50 μg/mL [1]	cytotoxicity at 24 h, 75 μg/mL [1]	cytotoxicity at 24 h, 100 μg/mL [1]	cytotoxicity at 24 h, 25 μg/mL [2]	cytotoxicity at 24 h, 50 μg/mL [2]	cytotoxicity at 24 h, 75 μg/mL [2]	cytotoxicity at 24 h, 100 μg/mL [2]	further results
6.34 µg/mL (≈ 14.9 µM)	41.2 µg/mL (≈ 97.1 µM)	5.38 µg/mL (≈ 12.7 µM)	> 500 µg/mL	Cc1ccccc1-c1cc(-c2ccccn2)nc(N[C@@H]2O[C@H](CO)[C@@H](O)[C@H](O)[C@H]2O)n1 [Compound 1, N-[4-(2-methylphenyl)-6-pyridin-2-ylpyrimidin-2-yl]-β-D-glucopyranosylamine]	245 µg/mL (≈ 578 µM)	24.3 µg/mL	> 500 µg/mL	> 500 µg/mL	> 500 µg/mL	3.1 µg/mL (≈ 7.3 µM)	77.4 µg/mL (≈ 182 µM)	81.6 µg/mL	30.2%	47%	65.3%	88.7%	29.3%	48%	68.9%	83.7%	MIC [3]: 500 µg/mL (≈ 1180 µM); MIC (E. coli ATCC 25922): > 1000 µg/mL; MIC (E. coli ESBL ATCC 35218): > 1000 µg/mL; MIC (E. faecalis ATCC 29212): 1000 µg/mL (≈ 2360 µM); MIC [4]: > 1000 µg/mL; MIC [5]: > 1000 µg/mL; MIC (S. aureus ATCC 25923): 500 µg/mL (≈ 1180 µM); MIC [6]: 1000 µg/mL (≈ 2360 µM); MIC [7]: 500 µg/mL (≈ 1180 µM); MIC (S. gordonii NCTC 7870): 250 µg/mL (≈ 589 µM); MIC (S. mutans ATCC 35668): 62.5 µg/mL (≈ 147 µM); MIC (S. mutans ATCC 35668; [8]): 62.5 to 125 µg/mL (≈ 147 to 294 µM)
2.21 µg/mL (≈ 3.73 µM)	21.9 µg/mL (≈ 36.9 µM)	7.53 µg/mL (≈ 12.7 µM)	> 500 µg/mL	CC(=O)OC[C@H]1O[C@@H](Nc2nc(-c3ccccn3)cc(-c3ccccc3C)n2)[C@H](OC(C)=O)[C@@H](OC(C)=O)[C@@H]1OC(C)=O [Compound 10, 2,3,4,6-tetra-O-acetyl-N-[4-(2-methylphenyl)-6-pyridin-2-ylpyrimidin-2-yl]-β-D-glucopyranosylamine]	486 µg/mL (≈ 820 µM)	9.19 µg/mL	> 500 µg/mL	> 500 µg/mL	> 500 µg/mL	22.8 µg/mL (≈ 38.4 µM)	> 500 µg/mL	> 500 µg/mL	16.8%	40.7%	51.7%	58.4%	29.4%	51.8%	64.5%	95.2%	MIC [3]: > 1000 µg/mL; MIC (E. coli ATCC 25922): > 1000 µg/mL; MIC (E. coli ESBL ATCC 35218): > 1000 µg/mL; MIC (E. faecalis ATCC 29212): 500 µg/mL (≈ 844 µM); MIC [4]: 125 µg/mL (≈ 211 µM); MIC [5]: > 1000 µg/mL; MIC (S. aureus ATCC 25923): > 1000 µg/mL; MIC [6]: 1000 µg/mL (≈ 1690 µM); MIC [7]: > 1000 µg/mL; MIC (S. gordonii NCTC 7870): > 1000 µg/mL; MIC (S. mutans ATCC 35668; [8]): 500 µg/mL (≈ 844 µM)
